Data set [1] concerns the target Acetylcholinesterase (Electrophorus electricus, UniProt O42275).
Description: Inhibition of Electric eel AChE
In data set [2] the target is Butyrylcholinesterase (Equus caballus, UniProt Q9N1N9).
Description: Inhibition of BuChE from equine serum
The subject of data set [3] is Rattus norvegicus. Put plainly: Effect on scopolamine-induced memory impairment in iv dosed Wistar assessed as decrease in number of errors during exploration of the bait at the end of the eight-arm radial maze for 5 days. The class given is functional, organism-based.
The test system of data set [4] is Rattus norvegicus. As to the kind of experiment: Effect on scopolamine-induced memory impairment in iv dosed Wistar rat assessed as decrease in time spent for exploration of the bait at the end of the eight-arm radial maze for 5 days. The class given is functional, organism-based.
For data set [5], the species on record is Rattus norvegicus. Put plainly: Hepatotoxicity in Wistar rat liver assessed as histopathological changes. The class given is toxicity, organism-based. The conditions noted are these: in vivo.

Each structure is given as a SMILES string. The source made the active and inactive calls. The calls are words filed in the database; no cut-off is given here.

Acetylcholinesterase, sequence (O42275 whole entry): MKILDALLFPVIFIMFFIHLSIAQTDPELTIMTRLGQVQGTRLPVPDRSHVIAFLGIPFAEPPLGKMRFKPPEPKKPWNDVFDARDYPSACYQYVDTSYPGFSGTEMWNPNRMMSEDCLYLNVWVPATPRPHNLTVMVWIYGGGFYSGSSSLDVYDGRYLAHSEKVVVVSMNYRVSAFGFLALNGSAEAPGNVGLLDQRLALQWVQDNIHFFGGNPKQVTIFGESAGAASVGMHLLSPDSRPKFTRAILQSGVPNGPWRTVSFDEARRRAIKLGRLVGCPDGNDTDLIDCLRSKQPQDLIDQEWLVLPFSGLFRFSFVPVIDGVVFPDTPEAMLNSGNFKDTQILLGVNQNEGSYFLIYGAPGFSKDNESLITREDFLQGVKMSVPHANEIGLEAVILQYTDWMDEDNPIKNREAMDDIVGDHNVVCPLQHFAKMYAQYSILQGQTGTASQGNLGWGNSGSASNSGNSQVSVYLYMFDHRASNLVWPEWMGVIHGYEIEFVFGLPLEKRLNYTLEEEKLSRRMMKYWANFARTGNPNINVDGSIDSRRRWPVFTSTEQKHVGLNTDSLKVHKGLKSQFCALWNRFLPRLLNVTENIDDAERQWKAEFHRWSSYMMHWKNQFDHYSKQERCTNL
Butyrylcholinesterase, sequence (Q9N1N9 whole entry): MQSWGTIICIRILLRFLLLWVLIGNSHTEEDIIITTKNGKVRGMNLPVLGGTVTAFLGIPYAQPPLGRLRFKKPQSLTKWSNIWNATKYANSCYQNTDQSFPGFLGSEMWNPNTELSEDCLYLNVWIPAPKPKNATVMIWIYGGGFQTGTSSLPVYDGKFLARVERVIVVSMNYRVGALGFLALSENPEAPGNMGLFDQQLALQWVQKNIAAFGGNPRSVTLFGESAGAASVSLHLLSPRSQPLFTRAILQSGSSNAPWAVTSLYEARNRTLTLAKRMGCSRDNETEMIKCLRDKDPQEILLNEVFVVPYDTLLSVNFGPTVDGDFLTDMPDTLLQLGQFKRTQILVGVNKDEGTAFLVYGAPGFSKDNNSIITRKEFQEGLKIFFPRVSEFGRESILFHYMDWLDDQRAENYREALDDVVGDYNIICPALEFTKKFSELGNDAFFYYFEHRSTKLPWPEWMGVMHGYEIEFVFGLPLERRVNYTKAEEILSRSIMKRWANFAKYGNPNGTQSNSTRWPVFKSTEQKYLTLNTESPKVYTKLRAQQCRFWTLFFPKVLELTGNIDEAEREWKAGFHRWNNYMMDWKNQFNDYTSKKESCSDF

As usually defined, the IC50 is the point on the concentration scale where inhibition reaches its midpoint. A high value points to lower potency. For `O=[N+]([O-])OCCCNCCCCCNc1c2c(nc3ccccc13)CCCC2`, the figures for the IC50 in data set [1] and in data set [2] were 15.4 nM and 14.3 nM, respectively.

On to `O=[N+]([O-])OCCCCCCNCCCCCCCCNc1c2c(nc3ccccc13)CCCC2`, for which the IC50 worked out at 19.6 nM in data set [1] and 12.9 nM in data set [2].

In the case of `O=[N+]([O-])OCCCNCCNc1c2c(nc3ccccc13)CCCC2`, the IC50 turned out to be 13 nM in data set [1] and 18.1 nM in data set [2].

Regarding `O=[N+]([O-])OCCNCCCCCCCCNc1c2c(nc3ccccc13)CCCC2`, the IC50 in data set [1] stood at 7.7 nM; in data set [2], 17 nM.

`O=[N+]([O-])OCCNCCCCCNc1c2c(nc3ccccc13)CCCC2`: the IC50 in data set [1] was 21.6 nM; in data set [2], 13.3 nM.

For `O=[N+]([O-])OCCCNCCCCNc1c2c(nc3ccccc13)CCCC2`, the result in data set [3] and in data set [4] was Active. The values for the IC50 in data set [1] and in data set [2] were 5.6 nM and 9.9 nM, respectively. Besides, the Activity entry in data set [5] is recorded as “Non-toxic”.

Consider `O=[N+]([O-])OCCCNCCCCCCCCNc1c2c(nc3ccccc13)CCCC2`, for which the 50% inhibitory concentration (IC50) was found to be 17.1 nM in data set [1] and 14.8 nM in data set [2].

As to `O=C(CO[N+](=O)[O-])NCCCNc1c2c(nc3ccccc13)CCCC2`, the result in data set [3] and in data set [4] was Active. Besides, the figures for the IC50 in data set [1] and in data set [2] were 28.2 nM and 13.5 nM, respectively.

In the case of `O=[N+]([O-])OCCNCCNc1c2c(nc3ccccc13)CCCC2`, the result in data set [3] and in data set [4] was Active. Also, the IC50 in data set [1] came to 9.1 nM; in data set [2], 7.3 nM.

Consider `CCCNCCCCNc1c2c(nc3ccccc13)CCCC2`, for which the result in data set [3] and in data set [4] was inactive. Moreover, the results for the IC50 in data set [1] and in data set [2] were 23.4 nM and 7.2 nM, respectively.
